# Reference: patent US20130224110A1, “USE OF ADENOSINE RECEPTOR SIGNALING TO MODULATE PERMEABILITY OF BLOOD-BRAIN BARRIER” (CORNELL UNIVERSITY, priority 2010, published 2013)
# Assays:
# ICAM-1 = ICAM-1 expression on the choroid plexus after EAE induction; assay type: in vivo; conditions: wild type mice after EAE induction, vs DMSO
# Protocol: Anesthetized mice were perfused with PBS, and brains, spleens, and spinal cords were isolated and snap frozen in Tissue Tek-OCT medium. Five μm sections (brains in a sagittal orientation) were affixed to Supefrost/Plus slides (Fisher), fixed in acetone, and stored at −80° C. For immunostaining, slides were thawed and treated with 0.03% H2O2 in PBS to block endogenous peroxidase, blocked with Casein (Vector) in normal goat serum (Zymed), and then incubated with anti-CD45 (YW62.3), anti-CD4 (RM4-5), or anti-ICAM-1 (3E2). Slides were incubated with biotinylated goat anti-rat Ig (Jackson ImmunoResearch) and streptavidin-HRP (Zymed) and developed with an AEC (Red) substrate kit (Zymed) and a hematoxylin counterstain. […]
# As CD73 catalyzes the breakdown of AMP to adenosine and ARs are expressed in the CNS (Tsutsui et al., “A1 Adenosine Receptor Upregulation and Activation Attenuates Neuroinflammation and Demyelination in a Model of Multiple Sclerosis,” J. Neurosci. 24:1521-1529 (2004)); Rosi et al., The Influence of Brain Inflammation Upon Neuronal Adenosine A2B Receptors,” J. Neurochem. 86:220-227 (2003), which are hereby incorporated by reference in their entirety), it was next determined if AR signaling is important during EAE progression. […] Since CD73 is highly expressed on the choroid plexus (FIG. 6C), it was next determined if ARs are also expressed on the choroid plexus. […]
# Bend.3 cells [1] = test: Albumin uptake assay; assay type: cell-based, mouse; conditions: BECs, 1 μM, 30 minutes, vs media and vehicle
# Protocol: Bend.3 cells grown on collagen coated coverslips were incubated with albumin-alexafluor 594 (50 mg/ml) (Invitrogen) and either media alone, DMSO vehicle, NECA (1 μM), or Lexiscan (1 μM) for 30 minutes. Albumin uptake was visualized (albumin=red) utilizing the Zeiss Axio Imager M1 fluorescent microscope. Total albumin fluorescence was recorded using Zeiss Axio Vision software, and measured utilizing Image-J software.
# HCMECD3 cells = test: cAMP levels in human brain endothelial cells (cAMP Screen kit); assay type: cell-based; conditions: 15 minutes
# Protocol: […]3 cells were grown to confluencey on 24 well plates. As adenosine receptor (“AR”) stimulation is known to influence cAMP levels, cells were treated with or without various concentrations of NECA (general AR agonist), CCPA (A1 AR agonist), CGS 21860 (A2A AR agonist), DMSO vehicle, or Forksolin (induces cAMP). After 15 minutes, lysis buffer was added and the cells were frozen at -80 C to stop the reaction. Duplicate samples were used for each condition. cAMP levels were assayed using a cAMP Screen kit (Applied Biosystems, Foster City, Calif.).
# Z310 cells = test: Jurkat cell migration across Z310 choroid plexus cell transwell; assay type: cell-based, murine; conditions: 24 hours, n=1
# Protocol: To test the hypothesis, Transwell membranes were seeded with Z310 cells and allowed to grow to confluencey. 2×10^6 Jurkat cells were added to the upper chamber with or with out NECA (n=1, general AR agonist), CCPA (n=1, A1 AR agonist), CGS 21860 (n=1, A2A AR agonist), or DMSO vehicle(n=1). After 24 hours, migrated cells in the lower chamber were counted. Values are relative to the number of cells that migrate through non-Z310 seeded transwells and the results are shown in FIG. 12.
# Bend.3 cells [2] = test: Transendothelial cell electrical resistance (TEER) assay; assay type: cell-based; conditions: mouse BEC monolayers, 1 μM, vs vehicle or media alone
# Protocol: Bend.3 cells were grown in ATCC-formulated DMEM supplemented with 10% FBS on 24-well transwell inserts, 8 μm pore size (BD Falcon, Bedford, Mass.) until a monolayer was established. TEER was assessed using a Voltohmeter (EVOMX, World Precision Instruments, Sarasota, Fla.). Background resistance from un-seeded transwells was subtracted from recorded values to determine absolute TEER values. Change in absolute TEER from T0 for each individual transwell was expressed as percentage change and then averaged for each treatment group.
Structure (SMILES),ICAM-1 up regulation on the choroid plexus (ICAM-1),rate of fluorescently-labeled albumin uptake (Bend.3 cells [1]),cAMP levels (HCMECD3 cells),lymphocyte (Jurkat) migration across the CP (Z310 cells),TEER (Bend.3 cells [2])
"Nc1nc2c(cnn2CCc2ccccc2)c2nc(-c3ccco3)nn12 [SCH58261, 2-(2-Furanyl)-7-(2-phenylethyl)-7H-pyrazolo[4,3-e][1,2,4]triazolo[1,5-c]pyrimidin-5-amine]",prevented the up regulation of ICAM-1,,,,
"CCNC(=O)[C@H]1O[C@@H](n2cnc3c(N)ncnc32)[C@H](O)[C@@H]1O [NECA, 5′-N-ethylcarboxamido adenosine]",,did not affect the rate of fluorescently-labeled albumin uptake,increased cAMP levels,induced migration,decreases in TEER
